According to patent publication US9937227B2, “Humanin, analogs and cancer treatment methods and uses thereof” (LOS ANGELES BIOMEDICAL RESEARCH INSTITUTE AT HARBOR-UCLA …, priority 2014, dated 2018):
Where two headings read alike, the source gives them in different places.

Key:
[1] = test system: male germ cells; details: 24 hours
Procedure: Young adult mice (12-13 weeks) were randomly divided into 4 groups with 4 or 5 mice per group and received an IP injection: control (Con) (saline), HN (40 mg/Kg BW), CP (200 mg/Kg BW), and the combination of CP+HN. These experiments were repeated four times. In the CP+HN group, mice received an injection of HN followed by an injection of CP about 15 minutes later. Twenty-four hours after injections animals were sacrificed using 5% pentobarbital (200 mg/kg BW) IP injection. Blood was collected and one testis was removed, weighed and frozen in liquid nitrogen. The mouse was next perfused with saline and then subsequently perfuse-fixed with Bouin's solution as previously described and apoptosis was assessed by TUNEL assay (Lue, et al., 2009).
For detection of apoptosis in testicular sections, the paraffin embedded testis tissue was cut into 5 micron sections and stained with the TdT-mediated dUTP nick-end labeling assay (TUNEL Apoptosis Detection Kit, Millipore, Billerica, Mass.) to detect apoptosis of germ cells in the testis (Lue, et al., 2009). Testicular sections assayed by TUNEL were examined under a light microscope and the apoptotic germ cells were blindly and manually counted. The seminiferous tubules in the testis section under the microscope were grouped as stages IX-IV (early-late stages of spermatogenesis) and V-VIII (middle stages of spermatogenesis). Germ cell apoptosis was quantified as the number of seminiferous tubules containing apoptotic spermatogonia, spermatoctyes, round spermatids and spermatozoa per 100 seminiferous tubules (Drumond, et al., 2011).

[2] = test system: male germ cells; format: in vivo, mouse; details: B16 tumor-bearing mice; CP 200 mg/Kg single IP, 2 weeks
Procedure: A total of 25 young adult mice (10-12 weeks) were randomly divided into 5 groups (n=5 per group). Five mice were used as control. Twenty mice were inoculated intravenously with B16 murine melanoma cells (2×10^5 cells/mouse). Among these 20 tumor-inoculated mice, 5 mice received no further treatment. After one week, the remaining 15 mice were divided into 3 groups and injected with: 1) HNG daily IP (5 mg/Kg body weight) for 2 weeks; 2) CP (200 mg/Kg body weight IP single injection); 3) combined CP with HNG treatment (same doses as above). All mice were sacrificed 3 weeks after tumor inoculation, and 2 weeks after HNG and/or CP treatment. The animals were sacrificed with 5% pentobarbital (200 mg/kg body weight) IP injection after which blood was collected from the right atrium of the heart. One of the testes from each mouse was immersed fixed in Bouin's solution, and the mice were perfused with saline and subsequently perfuse-fixed with 5% glutaraldehyde in 0.05 M cacodylate buffer (pH 7.4). The lungs were dissected out and post fixed in 5% glutaraldehyde solution for 24 hours and stored in cacodylate buffer at 4° C. for the subsequent tumor count (Lue, et al., 2010; Lue, et al., 2009).

[3] = test system: Ser727-phosphorylated STAT3; test: STAT3 phosphorylation in testis by western blot; format: in vivo, mouse; details: testis homogenates; single agent
Procedure: For the HN analog experiments, male mice were divided into seven groups (n=4-5 per group) and received one of the following treatments and sacrificed after 24 hours: 1) vehicle (control); 2) a single intra-peritoneal (IP) injection of HN peptide [HN, 40 mg/Kg body weight (BW)]; 3) a single IP injection of CP (CP, 200 mg/Kg BW); 4) IP injection of CP and HN (CP+HN); 5) a single IP injection of each HN analog (HNG 5 mg/Kg BW, HNG-F6A 5 mg/Kg BW, HN-S7A 40 mg/Kg BW, HN-C8P 40 mg/Kg BW, or HN-L12A 40 mg/Kg BW); 6) IP injection of CP and each HN analog (CP+HNG, HNG-F6A, HN-S7A, HN-C8P, or HN-L12A); and 7) IP injection of CP+HN+HN analog (HN-S7A, HN-C8P, or HN-L12A; to assess whether the analogs has enhancing or inhibitory effect on HN).
To facilitate testicular fixation by using a whole-body perfusion technique, all animals were injected with heparin (130 IU/100 g BW, IP) 15 min before a lethal injection of sodium pentobarbital (200 mg/kg BW, IP) (Lue Y H, et al., 1999). One testis was removed and weighed after perfusion with saline. Portions of testicular parenchyma were snap frozen in liquid nitrogen, and stored at −80 C for Western blotting. The other testis was fixed by vascular perfusion with Bouin's solution, and processed with routine paraffin embedding for in situ detection of apoptosis.
Western blotting was performed as described previously (Jia Y, et al., 2009). […]

[4] = test system: 4T1 mammary cancer; test: 4T1 mouse mammary cancer model, tumor size and weight; details: in vivo
Procedure: A mouse mammary cancer model was used which utilizes 4T1 cells transfected with the luciferase gene. Growth and size of 4T1 mammary tumors were detected by bioluminescence imaging (IVIS Luminia II, Perkin Elmer, Waltham, Mass.). Mice (n=5 to 7 per group) were inoculated with 1×10^6 4T1 cells into the right third mammary gland, and 7 days later they were left untreated or treated with HNG (5 mg/kg/day IP), CP (100 mg/Kg single IP) or HNG+CP for 14 days. Bioluminescence imaging was conducted at days 7 and 12. Animals were sacrificed and tumors were removed on day 14 after the start of treatment. Mammary tumors were smaller in CP and CP+HNG groups compared to the untreated and HNG-treated animals (Data images not shown).

[5] = test system: germ cells; details: HNG 5 mg/kg/BW IP or CP 200 mg/kg/BW IP, 24 hours
Procedure: To examine the protective effects of HNG on germ cells, adult mice were treated with vehicle (control); HNG (5 mg/kg/BW, intraperitoneal injection IP); CP (200 mg/kg/BW, IP); and CP+HNG for 24 hours.

[6] = test system: male germ cells

## O=P1(N(CCCl)CCCl)NCCCO1 (stereo not drawn) [CP, cyclophosphamide monohydrate]
[1]; early-late stages of spermatogenesis, CP 200 mg/Kg IP
  germ cell apoptosis compared to control: significantly increased germ cell apoptosis
[1]; middle stages (V-VIII), CP 200 mg/Kg IP
  germ cell apoptosis compared to control: significant increase in apoptosis
[1]; testicular cross sections, HN 40 mg/Kg or CP 200 mg/Kg single IP
  germ cell apoptosis compared to control: significantly increased germ cell apoptosis
[2]
  germ cell apoptosis compared to control and HNG treated mice: further significantly increased
  testis weight in comparison with control, non-treated tumor bearing and HNG treated mice: significantly decreased
[3]
  STAT3 phosphorylation compared with control: suppressed
[4]
  mammary tumor size and weight: smaller
[5]
  germ cell apoptosis vs control: significantly increased
[6]; early (I-VI) and late (IX-XIV) stages, EDS pre-treated
  germ cell apoptosis compared to control: did not significantly increased
[6]; early (I-VI) and late (IX-XIV) stages, no EDS, CP 70 mg/kg BW IP, 12 hours
  germ cell apoptosis compared to control: significantly increased
[6]; early and late stages
  CP induced germ cell apoptosis in EDS pre-treated rats vs without EDS: significantly lower
[6]; middle (VII-VIII) stages, no EDS, CP 70 mg/kg BW
  germ cell apoptosis compared to control: did not increase
